The supplement of paper PMC10307832

Assays:
Test in all cases: relative viability (nuclei count vs DMSO), 5 days (fraction); higher = more cells survive
[1] = test system: NCI-H1648
How it was run: (§1)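 The day after seeding in 1536-well plates, lung cancer cell lines were treated by pin tool with a single drug, or with a fixed anchor-drug dose together with five library-drug doses (not always all listed) in √10 steps. After 5 days, a combined fix-and-stain solution (final 0.05% Triton X-100, 1% formaldehyde, 1 ug/ml Hoechst) was added. Nuclei counted on 4× images gave relative viability as treated counts over vehicle counts, reported as the median of duplicate plates.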

[2] = test system: NCI-H1651
How it was run: as §1

[3] = test system: NCI-H1944
How it was run: as §1

[4] = test system: NCI-H520
How it was run: as §1

[5] = test system: NCI-H650
How it was run: as §1

[6] = test system: NCI-H838
How it was run: as §1

[7] = test system: PC-3 [JPC-3]
How it was run: as §1

[8] = test system: RERF-LC-KJ
How it was run: as §1

[9] = test system: A549
How it was run: as §1

Question: `COc1cc2nccc(Oc3ccc(NC(=O)Nc4cc(C)on4)c(Cl)c3)c2cc1OC` [Tivozanib] + CC(=O)c1c(C)c2cnc(Nc3ccc(N4CCNCC4)cn3)nc2n(C2CCCC2)c1=O [Palbociclib] (partner 0.5 µM) was tested. Which relative viability ([1]; first compound 0.005 µM) did it give?
Answer: 0.31

Question: What about the relative viability ([1]; first compound 0.01581 µM) of the same compound?
Answer: 0.272

Question: And the relative viability ([1]; first compound 0.05 µM)?
Answer: 0.269

Question: What about the relative viability ([1]; first compound 0.1581 µM) of the same compound?
Answer: 0.244

Question: And the relative viability ([1]; first compound 0.5 µM)?
Answer: 0.231

Question: What about the relative viability ([2]; first compound 0.005 µM) of the same compound?
Answer: 0.524

Question: And the relative viability ([2]; first compound 0.01581 µM)?
Answer: 0.516

Question: What about the relative viability ([2]; first compound 0.05 µM) of the same compound?
Answer: 0.522

Question: And the relative viability ([2]; first compound 0.1581 µM)?
Answer: 0.547

Question: And the relative viability ([2]; first compound 0.5 µM)?
Answer: 0.543

Question: What about the relative viability ([3]; first compound 0.005 µM) of the same compound?
Answer: 0.303

Question: And the relative viability ([3]; first compound 0.01581 µM)?
Answer: 0.365

Question: And the relative viability ([3]; first compound 0.05 µM)?
Answer: 0.344

Question: What about the relative viability ([3]; first compound 0.1581 µM) of the same compound?
Answer: 0.296

Question: What about the relative viability ([3]; first compound 0.5 µM) of the same compound?
Answer: 0.324

Question: And the relative viability ([4]; first compound 0.005 µM)?
Answer: 0.231

Question: What about the relative viability ([4]; first compound 0.01581 µM) of the same compound?
Answer: 0.296

Question: And the relative viability ([4]; first compound 0.05 µM)?
Answer: 0.238

Question: And the relative viability ([4]; first compound 0.1581 µM)?
Answer: 0.19

Question: And the relative viability ([4]; first compound 0.5 µM)?
Answer: 0.231

Question: What about the relative viability ([5]; first compound 0.005 µM) of the same compound?
Answer: 0.297

Question: And the relative viability ([5]; first compound 0.01581 µM)?
Answer: 0.391

Question: What about the relative viability ([5]; first compound 0.05 µM) of the same compound?
Answer: 0.338

Question: What about the relative viability ([5]; first compound 0.1581 µM) of the same compound?
Answer: 0.377

Question: What about the relative viability ([5]; first compound 0.5 µM) of the same compound?
Answer: 0.27

Question: And the relative viability ([6]; first compound 0.005 µM)?
Answer: 0.227

Question: What about the relative viability ([6]; first compound 0.01581 µM) of the same compound?
Answer: 0.227

Question: What about the relative viability ([6]; first compound 0.05 µM) of the same compound?
Answer: 0.211

Question: What about the relative viability ([6]; first compound 0.1581 µM) of the same compound?
Answer: 0.2

Question: And the relative viability ([6]; first compound 0.5 µM)?
Answer: 0.229

Question: And the relative viability ([7]; first compound 0.01581 µM)?
Answer: 0.55

Question: And the relative viability ([7]; first compound 0.05 µM)?
Answer: 0.554

Question: And the relative viability ([7]; first compound 0.1581 µM)?
Answer: 0.609

Question: And the relative viability ([7]; first compound 0.5 µM)?
Answer: 0.55

Question: And the relative viability ([8]; first compound 0.005 µM)?
Answer: 1.01

Question: And the relative viability ([8]; first compound 0.01581 µM)?
Answer: 1.05

Question: What about the relative viability ([8]; first compound 0.05 µM) of the same compound?
Answer: 1.11

Question: What about the relative viability ([8]; first compound 0.1581 µM) of the same compound?
Answer: 1.08

Question: What about the relative viability ([8]; first compound 0.5 µM) of the same compound?
Answer: 1.04

Question: For `COc1cc2nccc(Oc3ccc(NC(=O)Nc4cc(C)on4)c(Cl)c3)c2cc1OC` [Tivozanib] + Nc1nc2[nH]cc(CCc3ccc(C(=O)N[C@@H](CCC(=O)O)C(=O)O)cc3)c2c(=O)[nH]1 [Pemetrexed] (partner 0.2 µM), which relative viability ([1]; first compound 0.005 µM) is on record?
Answer: 0.723

Question: And the relative viability ([1]; first compound 0.01581 µM)?
Answer: 0.704

Question: And the relative viability ([1]; first compound 0.05 µM)?
Answer: 0.778

Question: And the relative viability ([1]; first compound 0.1581 µM)?
Answer: 0.652

Question: What about the relative viability ([1]; first compound 0.5 µM) of the same compound?
Answer: 0.546

Question: And the relative viability ([2]; first compound 0.005 µM)?
Answer: 0.54

Question: And the relative viability ([2]; first compound 0.01581 µM)?
Answer: 0.52

Question: What about the relative viability ([2]; first compound 0.05 µM) of the same compound?
Answer: 0.683

Question: What about the relative viability ([2]; first compound 0.1581 µM) of the same compound?
Answer: 0.421

Question: What about the relative viability ([2]; first compound 0.5 µM) of the same compound?
Answer: 0.574

Question: What about the relative viability ([3]; first compound 0.005 µM) of the same compound?
Answer: 0.545

Question: What about the relative viability ([3]; first compound 0.01581 µM) of the same compound?
Answer: 0.568

Question: And the relative viability ([3]; first compound 0.05 µM)?
Answer: 0.652

Question: What about the relative viability ([3]; first compound 0.1581 µM) of the same compound?
Answer: 0.659

Question: What about the relative viability ([3]; first compound 0.5 µM) of the same compound?
Answer: 0.611

Question: And the relative viability ([4]; first compound 0.005 µM)?
Answer: 0.525

Question: And the relative viability ([4]; first compound 0.01581 µM)?
Answer: 0.572

Question: What about the relative viability ([4]; first compound 0.05 µM) of the same compound?
Answer: 0.552

Question: And the relative viability ([4]; first compound 0.1581 µM)?
Answer: 0.579

Question: And the relative viability ([4]; first compound 0.5 µM)?
Answer: 0.61

Question: And the relative viability ([5]; first compound 0.005 µM)?
Answer: 0.892

Question: What about the relative viability ([5]; first compound 0.01581 µM) of the same compound?
Answer: 0.98

Question: And the relative viability ([5]; first compound 0.05 µM)?
Answer: 0.879

Question: And the relative viability ([5]; first compound 0.1581 µM)?
Answer: 0.679

Question: And the relative viability ([5]; first compound 0.5 µM)?
Answer: 0.734

Question: What about the relative viability ([6]; first compound 0.005 µM) of the same compound?
Answer: 0.242

Question: And the relative viability ([6]; first compound 0.01581 µM)?
Answer: 0.253

Question: What about the relative viability ([6]; first compound 0.05 µM) of the same compound?
Answer: 0.252

Question: And the relative viability ([6]; first compound 0.1581 µM)?
Answer: 0.257

Question: What about the relative viability ([6]; first compound 0.5 µM) of the same compound?
Answer: 0.22

Question: And the relative viability ([7]; first compound 0.01581 µM)?
Answer: 1.09

Question: What about the relative viability ([7]; first compound 0.05 µM) of the same compound?
Answer: 1.09

Question: And the relative viability ([7]; first compound 0.1581 µM)?
Answer: 1.06

Question: What about the relative viability ([7]; first compound 0.5 µM) of the same compound?
Answer: 0.936

Question: And the relative viability ([8]; first compound 0.005 µM)?
Answer: 0.465

Question: What about the relative viability ([8]; first compound 0.01581 µM) of the same compound?
Answer: 0.441

Question: What about the relative viability ([8]; first compound 0.05 µM) of the same compound?
Answer: 0.479

Question: What about the relative viability ([8]; first compound 0.1581 µM) of the same compound?
Answer: 0.465

Question: And the relative viability ([8]; first compound 0.5 µM)?
Answer: 0.439

Question: Which results are given for `COc1cc2nccc(Oc3ccc(NC(=O)Nc4cc(C)on4)c(Cl)c3)c2cc1OC` [Tivozanib] + Nc1ncn([C@H]2C[C@H](O)[C@@H](CO)O2)c(=O)n1 [Decitabine] (partner 2 µM)?
Answer: relative viability ([9]; first compound 0.005 µM): 0.207; relative viability ([9]; first compound 0.01581 µM): 0.225; relative viability ([9]; first compound 0.05 µM): 0.223; relative viability ([9]; first compound 0.1581 µM): 0.239; relative viability ([9]; first compound 0.5 µM): 0.225; relative viability ([1]; first compound 0.005 µM): 0.467; relative viability ([1]; first compound 0.01581 µM): 0.434; relative viability ([1]; first compound 0.05 µM): 0.479; relative viability ([1]; first compound 0.1581 µM): 0.451; relative viability ([1]; first compound 0.5 µM): 0.496; relative viability ([2]; first compound 0.005 µM): 0.572; relative viability ([2]; first compound 0.01581 µM): 0.551; relative viability ([2]; first compound 0.05 µM): 0.675; relative viability ([2]; first compound 0.1581 µM): 0.438; relative viability ([2]; first compound 0.5 µM): 0.524; relative viability ([3]; first compound 0.005 µM): 0.402; relative viability ([3]; first compound 0.01581 µM): 0.473; relative viability ([3]; first compound 0.05 µM): 0.447; relative viability ([3]; first compound 0.1581 µM): 0.459; relative viability ([3]; first compound 0.5 µM): 0.416; relative viability ([4]; first compound 0.005 µM): 0.442; relative viability ([4]; first compound 0.01581 µM): 0.448; relative viability ([4]; first compound 0.05 µM): 0.444; relative viability ([4]; first compound 0.1581 µM): 0.56; relative viability ([4]; first compound 0.5 µM): 0.351; relative viability ([5]; first compound 0.005 µM): 0.296; relative viability ([5]; first compound 0.01581 µM): 0.299; relative viability ([5]; first compound 0.05 µM): 0.35; relative viability ([5]; first compound 0.1581 µM): 0.312; relative viability ([5]; first compound 0.5 µM): 0.294; relative viability ([6]; first compound 0.005 µM): 0.431; relative viability ([6]; first compound 0.01581 µM): 0.499; relative viability ([6]; first compound 0.05 µM): 0.446; relative viability ([6]; first compound 0.1581 µM): 0.482; relative viability ([6]; first compound 0.5 µM): 0.428; relative viability ([7]; first compound 0.01581 µM): 0.843; relative viability ([7]; first compound 0.05 µM): 0.805; relative viability ([7]; first compound 0.1581 µM): 0.815; relative viability ([7]; first compound 0.5 µM): 0.831; relative viability ([8]; first compound 0.005 µM): 0.585; relative viability ([8]; first compound 0.01581 µM): 0.646; relative viability ([8]; first compound 0.05 µM): 0.657; relative viability ([8]; first compound 0.1581 µM): 0.637; relative viability ([8]; first compound 0.5 µM): 0.723
